{
  "source": "paper PMC4269550",
  "about": "“Lead Optimization of a Pyrazole Sulfonamide Series of Trypanosoma bruceiN-Myristoyltransferase Inhibitors: Identification and Evaluation of CNS Penetrant Compounds as Potential Treatments for Stage 2 Human African Trypanosomiasis” (Journal of Medicinal Chemistry, 2014)",
  "key": {"P-glycoprotein": {"test_system": "P-glycoprotein", "assay": "Rat brain penetration study +/- GF120918", "details": "in vivo"}, "T. b. brucei S427": {"test_system": "T. b. brucei S427", "assay": "Stage 1 HAT mouse efficacy model, T. b. brucei S427", "type": "in vivo", "details": "b.i.d. po, mouse"}, "Mouse pharmacokinetics": {"assay": "Mouse pharmacokinetics", "type": "in vivo", "details": "female, NMRI, whole blood; mouse, 10 mg/kg po; read-out: AUC0–8 (converted)", "procedure": "Test compound was dosed as a bolus solution intravenously at 3 mg free base/kg (dose volume, 5 mL/kg; dose vehicle, saline or 5% DMSO; 40% PEG400; 55% saline) to female NMRI mice (n = 3) or dosed orally by gavage as a solution at 10 and/or 50 mg free base/kg (dose volume, 5 mL/kg; dose vehicle, 5% DMSO; 95% distilled water or 5% DMSO; 40% PEG400; 55% distilled water) to female NMRI mice (n = 3/dose level). Female NMRI mice were chosen as these represent the sex and strain used for the stage 1 and stage 2 HAT efficacy models. Blood samples were taken from each mouse at 2 (IV only), 5 (IV only), 15, and 30 min, 1, 2, 4, 6, 8, and 24 (po only) hours postdose and mixed with two volumes of distilled water. After suitable sample preparation, the concentration of test compound in blood was determined by UPLC-MS/MS using a Quattro Premier XE (Waters, USA). Pharmacokinetic parameters were derived from the mean blood concentration time curve using PKsolutions software v 2.0 (Summit Research Services, USA)."}, "[1]": {"test_system": "T. b. rhodesiense STIB900", "assay": "Stage 1 HAT mouse efficacy model, T. b. rhodesiense STIB900", "type": "in vivo", "details": "b.i.d. po for 4 days"}, "[2]": {"assay": "Intrinsic clearance (Cli), mouse liver microsomes", "type": "in vitro ADME"}},
  "data": [
    {"smiles": "Cc1nn(C)c(C)c1NS(=O)(=O)c1c(Cl)cc(-c2ccnc(N3CCNCC3)c2)cc1Cl", "note": "[compound 1, 2,6-Dichloro-4-(2-piperazin-1-yl-pyridin-4-yl)-N-(1,3,5-trimethyl-1H-pyrazol-4-yl)-benzenesulfonamide]", "values": [
      {"measurement": "P-glycoprotein substrate", "setting": "P-glycoprotein", "result": "substrate for P-glycoprotein"},
      {"measurement": "stage 1 HAT minimal curative dose, T. b. brucei S427", "setting": "T. b. brucei S427", "result": 12.5, "unit": "mg/kg"},
      {"measurement": "AUC(0-t)", "setting": "Mouse pharmacokinetics", "result": 6530, "unit": "ng·h/mL"},
      {"measurement": "stage 1 HAT minimal curative dose, T. b. rhodesiense STIB900", "setting": "[1]", "result": 50, "unit": "mg/kg"},
      {"measurement": "Cli (mouse)", "setting": "[2]; Table S1, unit not given", "result": 0.6},
      {"measurement": "Cli (mouse)", "setting": "[2]; mouse liver microsomes", "result": "< 1.0", "unit": "mL min^–1 g^–1"}
    ]}
  ]
}
